This passage reports relative viability results from the supplement of paper PMC10307832.

Holding throughout (experiment): relative viability (nuclei count vs DMSO), 5 days (fraction); higher = more cells survive
Compound in the test “CX-5461 + Tozasertib”: Cc1cnc(CNC(=O)c2c(=O)c3ccc(N4CCCN(C)CC4)nc3n3c2sc2ccccc23)cn1 [CX-5461] + Cc1cc(Nc2cc(N3CCN(C)CC3)nc(Sc3ccc(NC(=O)C4CC4)cc3)n2)n[nH]1 [Tozasertib] (partner 0.1 µM)
Put shortly: (§1)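 Five library-drug doses in √10 steps were combined with a fixed anchor-drug dose, or a single drug was given alone, by pin tool to lung cancer cell lines in 1536-well plates the day after seeding. Nuclei were stained and counted after 5 days. Relative viability is the nuclei count in treated wells over that in vehicle wells, taken as the median of duplicate plates.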

Compound in the test “IMD-0354 + Bortezomib”: O=C(Nc1cc(C(F)(F)F)cc(C(F)(F)F)c1)c1cc(Cl)ccc1O [IMD-0354] + CC(C)C[C@H](NC(=O)[C@H](Cc1ccccc1)NC(=O)c1cnccn1)B(O)O [Bortezomib] (partner 0.002 µM)
In outline: as §1

Compound in the test “IMD-0354 + Dasatinib”: O=C(Nc1cc(C(F)(F)F)cc(C(F)(F)F)c1)c1cc(Cl)ccc1O [IMD-0354] + Cc1nc(Nc2ncc(C(=O)Nc3c(C)cccc3Cl)s2)cc(N2CCN(CCO)CC2)n1 [Dasatinib] (partner 0.075 µM)
Put shortly: as §1

Compound in the test “IMD-0354 + Olaparib”: O=C(Nc1cc(C(F)(F)F)cc(C(F)(F)F)c1)c1cc(Cl)ccc1O [IMD-0354] + O=C(c1cc(Cc2n[nH]c(=O)c3ccccc23)ccc1F)N1CCN(C(=O)C2CC2)CC1 [Olaparib] (partner 8 µM)
Put shortly: as §1

As for UMC-11, the relative viability with CX-5461 + Tozasertib (first compound 0.01 µM) was 0.189; with CX-5461 + Tozasertib (first compound 0.03162 µM), 0.201; in the test with CX-5461 + Tozasertib (first compound 0.1 µM), 0.204; with CX-5461 + Tozasertib (first compound 0.3162 µM) it was 0.198; with CX-5461 + Tozasertib (first compound 1 µM), 0.243; with IMD-0354 + Bortezomib (first compound 0.04 µM), 1.13. In addition, the relative viability with IMD-0354 + Bortezomib (first compound 0.1265 µM) came to 0.796; with IMD-0354 + Bortezomib (first compound 0.4 µM), 0.465; in the test with IMD-0354 + Bortezomib (first compound 1.265 µM) it was 0.237; in the test with IMD-0354 + Bortezomib (first compound 4 µM), 0.212; in the test with IMD-0354 + Dasatinib (first compound 0.04 µM) it was 0.541; with IMD-0354 + Dasatinib (first compound 0.1265 µM), 0.416. In addition, the relative viability came to 0.246 with IMD-0354 + Dasatinib (first compound 0.4 µM); 0.171 in the test with IMD-0354 + Dasatinib (first compound 1.265 µM); 0.206 with IMD-0354 + Dasatinib (first compound 4 µM); 0.368 with IMD-0354 + Olaparib (first compound 0.04 µM); 0.332 in the test with IMD-0354 + Olaparib (first compound 0.1265 µM); 0.278 in the test with IMD-0354 + Olaparib (first compound 0.4 µM). Moreover, the relative viability in the test with IMD-0354 + Olaparib (first compound 1.265 µM) stood at 0.182; in the test with IMD-0354 + Olaparib (first compound 4 µM) it was 0.178.
